Laboratory results taken from ChEMBL document CHEMBL1800066 (J Med Chem, 2011).
≈ marks a conversion by molar mass, not a printed value. Calls of active or inactive are those of the source. No cut-off for these calls is given here.

Columns and labels:
[1] = tested on: Canis familiaris; test: Oral bioavailability in dog at 2 mg/kg; assay type: ADME, organism-based, Canis lupus familiaris; conditions: in vivo
[2] = Solubility of the compound at pH 7.4; assay type: physicochemical; conditions: buffer
[3] = Cmax in monkey at 0.5 mg/kg, po; assay type: ADME, organism-based, Macaca mulatta; design: dose 0.5 mg/kg, route oral; conditions: rhesus monkey, in vivo
[4] = Plasma clearance in mouse at 1 mg/kg, iv; assay type: ADME, organism-based; design: dose 1 mg/kg, route intravenous
[5] = Half life in mouse at 1 mg/kg, iv; assay type: ADME, organism-based; design: dose 1 mg/kg, route intravenous; conditions: in vivo
[6] = molecular target: Cytochrome P450 2D6 (Homo sapiens, UniProt P10635); test: Inhibition of CYP2D6; assay type: ADME
[7] = Tmax in mouse at 2 mg/kg, po; assay type: ADME, organism-based; design: dose 2 mg/kg, route oral; conditions: in vivo
[8] = AUC (0 to infinity) in mouse at 2 mg/kg, po; assay type: ADME, organism-based; design: time infinity, dose 2 mg/kg, route oral; conditions: plasma
[9] = tested on: Mus musculus; test: Inhibition of c-Met phosphorylation at Y1349 in human GTL16 cells xenografted in po dosed CD1 nu/nu mouse measured 1 hr post dosing by Western blot analysis; conditions: CD1, GTL 16, 1 h
[10] = molecular target: T1, Hepatocyte growth factor receptor (Homo sapiens, UniProt P08581); test: Inhibition of recombinant human c-MET phosphorylation at C-terminal Y1365
[11] = molecular target: BDNF/NT-3 growth factors receptor (Homo sapiens, UniProt Q16620); test: Inhibition of human TrkB
[12] = molecular target: Vascular endothelial growth factor receptor 2 (Homo sapiens, UniProt P35968); test: Inhibition of human KDR
[13] = molecular target: Tyrosine-protein kinase Mer (Homo sapiens, UniProt Q12866); test: Inhibition of human Mer
[14] = molecular target: Hepatocyte growth factor receptor (Homo sapiens, UniProt P08581, Y1235D)
[15] = molecular target: Aurora kinase A (Homo sapiens, UniProt O14965); test: Inhibition of human Aurora A
[16] = Oral bioavailability in monkey at 0.5 mg/kg; assay type: ADME, organism-based, Macaca mulatta; conditions: rhesus monkey, in vivo
[17] = molecular target: Hepatocyte growth factor receptor (Homo sapiens, UniProt P08581, M1250T)
[18] = Plasma clearance in dog at 1 mg/kg, iv; assay type: ADME, organism-based, Canis lupus familiaris; design: dose 1 mg/kg, route intravenous
[19] = tested on: Mus musculus; test: Toxicity in human GTL16 cells xenografted CD1 nu/nu mouse assessed as change in median body weight at 10 to 100 mg/kg, po BID; assay type: organism-based; design: dose 10-100 mg/kg, route oral; conditions: in vivo
[20] = molecular target: Tyrosine-protein kinase ABL1 (Homo sapiens, UniProt P00519); test: Inhibition of human Abl
[21] = molecular target: T1, Hepatocyte growth factor receptor; test: Inhibition of recombinant human c-MET phosphorylation at C-terminal Y1349
[22] = Antiproliferative activity against human GTL16 cells after 72 hrs; conditions: GTL 16, 72 h
[23] = Tmax in monkey at 0.5 mg/kg, po; assay type: ADME, organism-based, Macaca mulatta; design: dose 0.5 mg/kg, route oral; conditions: rhesus monkey, in vivo
[24] = molecular target: Tyrosine-protein kinase JAK2 (Homo sapiens, UniProt O60674); test: Inhibition of human JAK2
[25] = Half life in monkey at 0.25 mg/kg, iv; assay type: ADME, organism-based, Macaca mulatta; design: dose 0.25 mg/kg, route intravenous; conditions: rhesus monkey, in vivo
[26] = Volume of distribution at steady state in rat at 2 mg/kg, iv and 5 mg/kg, po; assay type: ADME, organism-based; conditions: in vivo, read-out: Vdss
[27] = Inhibition of potassium channel IKr
[28] = molecular target: Vascular endothelial growth factor receptor 3 (Homo sapiens, UniProt P35916); test: Inhibition of human Flt4
[29] = Volume of distribution at steady state in monkey at 0.25 mg/kg, iv; assay type: ADME, organism-based, Macaca mulatta; design: dose 0.25 mg/kg, route intravenous; conditions: rhesus monkey, in vivo, read-out: Vdss
[30] = tested on: GTL 16; test: Antitumor activity against human GTL16 cells xenografted in CD1 nu/nu mouse assessed as suppression of tumor growth at 200 mg/kg, po QD; assay type: functional, organism-based; design: dose 200 mg/kg
[31] = tested on: Canis familiaris; test: AUC (0 to infinity) in dog at 1 mg/kg, iv; assay type: ADME, organism-based, Canis lupus familiaris, Plasma; design: time infinity, dose 1 mg/kg, route intravenous; conditions: in vivo
[32] = molecular target: Vascular endothelial growth factor receptor 1 (Homo sapiens, UniProt P17948); test: Inhibition of human Flt1
[33] = AUC (0 to infinity) in mouse at 1 mg/kg, iv; assay type: ADME, organism-based; design: time infinity, dose 1 mg/kg, route intravenous; conditions: plasma
[34] = molecular target: Receptor-type tyrosine-protein kinase FLT3 (Homo sapiens, UniProt P36888); test: Inhibition of human Flt3
[35] = tested on: Mus musculus; test: Toxicity in human GTL16 cells xenografted CD1 nu/nu mouse assessed as mortality at 10 to 100 mg/kg, po BID; assay type: organism-based; design: dose 10-100 mg/kg, route oral; conditions: in vivo
[36] = AUC (0 to infinity) in rat at 5 mg/kg, po; assay type: ADME, organism-based; design: dose 5 mg/kg, route oral, time infinity; conditions: plasma
[37] = tested on: Mus musculus; test: Inhibition of Akt phosphorylation at S473 in human GTL16 cells xenografted in CD1 nu/nu mouse at 10 to 100 mg/kg, po BID measured after 4 hrs by immunostaining assay; assay type: functional, organism-based
[38] = molecular target: T1, Hepatocyte growth factor receptor; test: Inhibition of recombinant human c-MET phosphorylation at C-terminal Y1230
[39] = AUC (0 to infinity) in monkey at 0.25 mg/kg, iv; assay type: ADME, organism-based, Macaca mulatta; design: time infinity, dose 0.25 mg/kg, route intravenous; conditions: rhesus monkey, plasma
[40] = molecular target: Fibroblast growth factor receptor 2 (Homo sapiens, UniProt P21802); test: Inhibition of human FGFR2
[41] = tested on: Mus musculus; test: Toxicity in human GTL16 cells xenografted CD1 nu/nu mouse assessed as change in median body weight at 200 mg/kg, po QD; assay type: organism-based; design: dose 200 mg/kg, route oral; conditions: in vivo
[42] = molecular target: Platelet-derived growth factor receptor alpha (Homo sapiens, UniProt P16234); test: Inhibition of human PDGFR-alpha
[43] = tested on: Mus musculus; test: Toxicity in human GTL16 cells xenografted CD1 nu/nu mouse assessed as mortality at 10 to 200 mg/kg, po qd; assay type: organism-based; design: dose 10-200 mg/kg, route oral; conditions: in vivo
[44] = tested on: GTL 16; test: Antitumor activity against human GTL16 cells xenografted in CD1 nu/nu mouse assessed as suppression of tumor growth at 10 to 100 mg/kg, po BID; assay type: functional, organism-based
[45] = Cmax in rat at 5 mg/kg, po; assay type: ADME, organism-based; design: dose 5 mg/kg, route oral; conditions: in vivo
[46] = Volume of distribution at steady state in mouse at 1 mg/kg, iv; assay type: ADME, organism-based; design: dose 1 mg/kg, route intravenous; conditions: in vivo, read-out: Vdss
[47] = Cmax in mouse at 2 mg/kg, po; assay type: ADME, organism-based; design: dose 2 mg/kg, route oral; conditions: in vivo
[48] = Oral bioavailability in mouse at 2 mg/kg; assay type: ADME, organism-based; conditions: in vivo
[49] = tested on: Canis familiaris; test: AUC (0 to infinity) in dog at 2 mg/kg, po; assay type: ADME, organism-based, Canis lupus familiaris, Plasma; design: time infinity, dose 2 mg/kg, route oral; conditions: in vivo
[50] = molecular target: Macrophage-stimulating protein receptor (Homo sapiens, UniProt Q04912); test: Inhibition of human Ron
[51] = tested on: Mus musculus; test: Inhibition of c-Met phosphorylation at Y1349 in human GTL16 cells xenografted in CD1 nu/nu mouse at 10 to 100 mg/kg, po BID measured after 4 hrs by immunostaining assay; assay type: functional, organism-based
[52] = molecular target: Fibroblast growth factor receptor 1 (Homo sapiens, UniProt P11362); test: Inhibition of human FGFR1
[53] = molecular target: Hepatocyte growth factor receptor (Homo sapiens, UniProt P08581, Y1230C)
[54] = molecular target: T1, Hepatocyte growth factor receptor; test: Inhibition of c-MET overexpressed in human GTL-16 cells assessed as phosphorylation at C-terminal Y1235 after 2 hrs by Western blot analysis; assay type: cell-based
[55] = molecular target: T1, Hepatocyte growth factor receptor; test: Binding affinity to human recombinant His6-tagged phosphorylated c-Met cytosolic domain
[56] = molecular target: Cytochrome P450 2C9 (Homo sapiens, UniProt P11712); test: Inhibition of CYP2C9; assay type: ADME

CN(C[C@@H]1COCCO1)S(=O)(=O)Nc1ccc2ccc3ncc(-c4cnn(C)c4)cc3c(=O)c2c1 [MK-2461]
F [1]: 13% | solubility [2]: 3 µg/mL (≈ 6.05 µM) | Cmax [3]: 120 nM | clearance [4]: 83 mL/min/kg | half-life [5]: 30 min | IC50 [6]: > 100000 nM | Tmax [7]: 18 min | AUC(0-inf) [8]: 0.6 µM·h | IC50 [9]: 1000 nM | IC50 [10]: 26 nM | IC50 [11]: 61 nM | IC50 [12]: 44 nM | IC50 [13]: 24 nM | IC50 [14]: 0.5 nM | IC50 [15]: 290 nM | bioavailability [16]: 14% | IC50 [17]: 0.4 nM | clearance [18]: 4.3 mL/min/kg | Activity [19]: Non-toxic | IC50 [20]: 7800 nM | IC50 [21]: 100 nM | IC50 [22]: 440 nM | Tmax [23]: 180 min | IC50 [24]: 230 nM | half-life [25]: 48 min | Vd [26]: 0.4 L/kg | IC50 [27]: > 30000 nM | IC50 [28]: 78 nM | Vd [29]: 0.5 L/kg | Activity [30]: Active | AUC [31]: 8.4 µM·h | IC50 [32]: 10 nM | AUC(0-inf) [33]: 0.4 µM·h | IC50 [34]: 22 nM | Activity [35]: Non-toxic | AUC(0-inf) [36]: 11.8 µM·h | inhibition [37]: Active | IC50 [38]: 900 nM | AUC(0-inf) [39]: 1 µM·h | IC50 [40]: 39 nM | Activity [41]: Non-toxic | IC50 [42]: < 100 nM | Activity [43]: Non-toxic | Activity [44]: Active | Cmax [45]: 4200 nM | Vd [46]: 3.2 L/kg | Cmax [47]: 410 nM | bioavailability [48]: 75% | AUC [49]: 13.7 µM·h | IC50 [50]: 7 nM | inhibition [51]: Active | IC50 [52]: 65 nM | IC50 [53]: 1.5 nM | IC50 [54]: > 2500 nM | Kd [55]: 4 nM | IC50 [56]: 1200 nM
